Tests used:
[1] = tested on: NF-kB pathway (TNF-α secretion by THP-1 cells); test: TNF-α secretion assay in LPS-stimulated THP-1 cells, Lumit immunoassay; assay type: cell-based, human; conditions: Homo sapiens, THP-1, 3 h, monocytic THP-1 cells, LPS 10 ng/mL, relative IC50, 10 concentrations, geometric mean
Method: Monocytic THP-1 cells were maintained in RPMI 1640 media (Gibco 21875)+10% FBS, (Gibco 10500)+1% penicillin/streptomycin (Gibco 15140-122). Cells were then plated at 40,000 cells per well in 384-well cell culture plates (Corning 3542) and maintained with RPMI1640 (Gibco 11835)+5% FBS, (Gibco 10500). Experimental compounds were prepared and added as described above. TNF-α secretion was triggered by the addition of 10 ng/mL LPS (invivoGen, tlrl-3pelps) and cells were incubated for 3 hours. TNF-α levels were monitored directly in the cells plate using an Lumit assay (Lumit TNFa-Human Immunoassay—Promega W6051) according to manufacturers' instructions.
Data were expressed as percentage of inhibition (I %) as compared to a maximum signal control containing no small molecule (I %=0%) according to the formula: 1%=(1−((Sample−Min))/((Max−Min)))×100, where: • Sample: Signal obtained in the presence of each compound tested, • Max: Maximum signal in the absence of compound added, • Min: Minimum or background signal obtained in the absence of activation signal.
Relative IC50 (IC50 rel) were obtained from a dose response curve with 10 concentrations. Final IC50 rels are expressed as the geometric mean.
Relative IC50 values were estimated with Biost@t-SPEED v2.4 internal software based on SAS system using the 4-parameter logistic model according to Ratkovsky and Reedy (D. A. Ratkovsky, T. J. Reedy, Choosing near-linear parameters in the four parameters logistic model radioligands and related assays. Biometrics, 42 (1986), 575-582): Y=A+C/((1+exp(−B*(log(X)−M)))), where: • A: Lower asymptote (BOTTOM), • A+C: Upper asymptote (TOP), • M: the logarithm of the concentration estimated at the inflexion point (the logarithm of the relative IC50), • B: Slope at the inflexion point of the curve.

NLRP3 inflammasome = biological target: T1, NLRP3 inflammasome (Homo sapiens, UniProt Q96P20); test: IL-1β secretion assay (NLRP3 IC50) in LPS-primed, nigericin-activated THP-1 cells, HTRF; assay type: cell-based; conditions: monocytic THP-1 cells; LPS 10 ng/mL 3 h priming, then compound + nigericin 10 μM 2 h; relative IC50, 10 concentrations, geometric mean
T1 construct: endogenous in cells; host or cells: THP-1 monocytic cells
T1 sequence (Q96P20 whole entry): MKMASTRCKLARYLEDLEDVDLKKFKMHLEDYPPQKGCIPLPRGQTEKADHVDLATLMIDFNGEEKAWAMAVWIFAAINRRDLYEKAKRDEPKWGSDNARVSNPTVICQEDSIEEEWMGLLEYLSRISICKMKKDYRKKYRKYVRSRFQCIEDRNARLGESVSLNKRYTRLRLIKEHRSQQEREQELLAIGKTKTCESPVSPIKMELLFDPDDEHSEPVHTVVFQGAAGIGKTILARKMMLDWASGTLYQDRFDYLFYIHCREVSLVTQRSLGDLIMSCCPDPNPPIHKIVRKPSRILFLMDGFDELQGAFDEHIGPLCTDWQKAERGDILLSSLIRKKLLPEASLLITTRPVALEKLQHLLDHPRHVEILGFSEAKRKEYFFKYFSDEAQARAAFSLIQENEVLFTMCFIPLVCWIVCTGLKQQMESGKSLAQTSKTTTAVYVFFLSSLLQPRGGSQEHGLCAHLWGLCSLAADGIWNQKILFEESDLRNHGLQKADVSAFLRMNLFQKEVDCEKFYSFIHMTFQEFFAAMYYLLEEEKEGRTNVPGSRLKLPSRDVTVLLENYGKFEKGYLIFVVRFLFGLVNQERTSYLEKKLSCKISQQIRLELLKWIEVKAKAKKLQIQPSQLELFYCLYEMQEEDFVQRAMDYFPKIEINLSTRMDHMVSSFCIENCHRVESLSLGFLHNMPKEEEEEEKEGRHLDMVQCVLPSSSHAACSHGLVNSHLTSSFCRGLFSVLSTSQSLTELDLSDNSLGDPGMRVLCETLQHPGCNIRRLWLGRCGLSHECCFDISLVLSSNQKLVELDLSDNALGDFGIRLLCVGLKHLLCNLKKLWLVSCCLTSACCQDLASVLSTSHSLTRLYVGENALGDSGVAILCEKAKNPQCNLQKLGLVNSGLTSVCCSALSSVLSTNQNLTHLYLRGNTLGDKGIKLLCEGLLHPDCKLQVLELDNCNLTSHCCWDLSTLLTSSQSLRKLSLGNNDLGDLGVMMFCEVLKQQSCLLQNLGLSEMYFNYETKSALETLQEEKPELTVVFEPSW
Summary of the method: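 IL-1β in supernatant read by HTRF after 2 h co-incubation of compound (0.1% DMSO, 10 concentrations, 1:3 series) with nigericin at 10 μM final, following 3 h LPS (10 ng/mL) priming of THP-1 monocytes at 37° C. Inhibition normalised to unactivated and no-compound controls; geometric-mean relative IC50 from 4-parameter logistic model.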

SMILES | IC50 [1] | IC50 (NLRP3 inflammasome)
Cc1cc(C)c(-c2ccc(N3CCO[C@@H](CO)C3)nn2)c(O)c1 [Example 9, 2-[6-[(2R)-2-(hydroxymethyl)morpholin-4-yl]pyridazin-3-yl]-3,5-dimethyl-phenol] | > 10000 nM | 113 nM
Cc1cc(C)c(-c2ccc(N3C[C@@H](N)CC3=O)nn2)c(O)c1 [Example 131, (4S)-4-amino-1-[6-(2-hydroxy-4,6-dimethyl-phenyl)pyridazin-3-yl]pyrrolidin-2-one] | > 10000 nM | 387 nM
Cc1cc(C)c(-c2ccc(N3CC[C@@H](CO)C3)nn2)c(O)c1 [Example 65, 2-[6-[(3R)-3-(hydroxymethyl)pyrrolidin-1-yl]pyridazin-3-yl]-3,5-dimethyl-phenol] | > 10000 nM | 151 nM
CC(=O)N1CC[C@H]2OCCN(c3cc(C)c(-c4ccc(C(F)(F)F)cc4O)nn3)[C@H]2C1 [Example 363, 1-[(4aS,8aR)-4-[6-[2-hydroxy-4-(trifluoromethyl)phenyl]-5-methyl-pyridazin-3-yl]-3,4a,5,7,8,8a-hexahydro-2H-pyrido[4,3-b][1,4]oxazin-6-yl]ethanone] | > 10000 nM | 16 nM
Oc1cc(Cl)cc(Cl)c1-c1ccc(N2CCC3(CC2)COC3)nn1 [Example 66, 3,5-dichloro-2-[6-(2-oxa-7-azaspiro[3.5]nonan-7-yl)pyridazin-3-yl]phenol] | > 10000 nM | 304 nM
Cc1cc(Cl)cc(O)c1-c1cc(CO)c(N2CCO[C@H](CO)C2)nn1 [Example 189, 5-chloro-2-[5-(hydroxymethyl)-6-[(2S)-2-(hydroxymethyl)morpholin-4-yl]pyridazin-3-yl]-3-methyl-phenol] | > 10000 nM | 12 nM
Cc1cc(C)c(-c2cc(C)c(N3CCO[C@@H]4CCN(C)C[C@@H]43)nn2)c(O)c1 [Example 434, 2-[6-[(4aS,8aR)-6-methyl-3,4a,5,7,8,8a-hexahydro-2H-pyrido[4,3-b][1,4]oxazin-4-yl]-5-methyl-pyridazin-3-yl]-3,5-dimethyl-phenol] | > 10000 nM | 42 nM
Cc1cc(C)c(-c2ccc(N3CCO[C@@H](CC(N)=O)C3)nn2)c(O)c1 (single isomer, unassigned) [Example 147] | > 10000 nM | 575 nM
Cc1cc(C)c(-c2ccc(N3CCC(CO)C3=O)nn2)c(O)c1 (stereo not shown) [Example 122, 1-[6-(2-hydroxy-4,6-dimethyl-phenyl)pyridazin-3-yl]-3-(hydroxymethyl) pyrrolidin-2-one] | > 10000 nM | 149 nM
CCc1cccc(O)c1-c1ccc(N2CC[C@@H]3CCN(C)C[C@@H]32)nn1 (racemic) [Example 388, 3-ethyl-2-[6-[rac-(3aS,7aR)-6-methyl-3,3a,4,5,7,7a-hexahydro-2H-pyrrolo[2,3-c]pyridin-1-yl]pyridazin-3-yl]phenol] | > 10000 nM | 1 nM
CCN1CC[C@H]2OCCN(c3cc(C)c(-c4ccc(C)cc4O)nn3)[C@H]2C1 [Example 435, 2-[6-[(4aS,8aR)-6-ethyl-3,4a,5,7,8,8a-hexahydro-2H-pyrido[4,3-b][1,4]oxazin-4-yl]-4-methyl-pyridazin-3-yl]-5-methyl-phenol] | > 10000 nM | 3 nM
Cc1cc(C(F)(F)F)cc(O)c1-c1nnc(N2CCO[C@H](CO)C2)cc1C(F)F [Example 248, 2-[4-(difluoromethyl)-6-[(2S)-2-(hydroxymethyl)morpholin-4-yl]pyridazin-3-yl]-3-methyl-5-(trifluoromethyl)phenol] | > 10000 nM | 81 nM
Cc1ccc(-c2nnc(N3CCO[C@H](CO)C3)c3c2CCC3)c(O)c1 [Example 77, 2-[4-[(2S)-2-(hydroxymethyl)morpholin-4-yl]-6,7-dihydro-5H-cyclopenta[d]pyridazin-1-yl]-5-methyl-phenol] | > 10000 nM | 135 nM
CC(=O)N1CC[C@@H]2OCCN(c3ccc(-c4c(C)cc(C(F)(F)F)cc4O)nn3)[C@@H]2C1 (stereo in doubt) [Example 398, 1-[(4aR,8aS)-4-[6-[2-hydroxy-6-methyl-4-(trifluoromethyl)phenyl]pyridazin-3-yl]-3,4a,5,7,8,8a-hexahydro-2H-pyrido[4,3-b][1,4]oxazin-6-yl]ethanone] | > 10000 nM | 17 nM
Cc1cc(C)c(-c2ccc(N3CCOC([C@@H](C)O)C3)nn2)c(O)c1 (single isomer, unassigned) [Example 180] | > 10000 nM | 473 nM

Continued, values first:

IC50 [1] | IC50 (NLRP3 inflammasome) | SMILES
9140 nM | 556 nM | Cc1cc(C)c(-c2ccc(N3CCCc4cc(O)ccc43)nn2)c(O)c1 [Example 230, 1-[6-(2-hydroxy-4,6-dimethyl-phenyl)pyridazin-3-yl]-3,4-dihydro-2H-quinolin-6-ol]
> 10000 nM | 9 nM | Cc1cc(C(F)(F)F)cc(O)c1-c1ccc(N2CCO[C@H]3CCNC[C@H]32)nn1 (racemic) [Example 197, 2-[6-[rac-(4aR,8aS)-2,3,4a,5,6,7,8,8a-octahydropyrido[4,3-b][1,4]oxazin-4-yl]pyridazin-3-yl]-3-methyl-5-(trifluoromethyl)phenol]
> 10000 nM | 52 nM | Cc1cc(C(F)(F)F)cc(O)c1-c1ccc(N2C[C@@H](O)CC2=O)nn1 [Example 62, (4S)-4-hydroxy-1-[6-[2-hydroxy-6-methyl-4-(trifluoromethyl)phenyl]pyridazin-3-yl]pyrrolidin-2-one]
> 10000 nM | 501 nM | COC[C@@H]1CN(c2ccc(-c3c(O)cc(Cl)cc3Cl)nn2)CCO1 [Example 35, 3,5-dichloro-2-[6-[(2S)-2-(methoxymethyl)morpholin-4-yl]pyridazin-3-yl]phenol]
> 10000 nM | 115 nM | CC(=O)N1CC[C@@H]2OCCN(c3ccc(-c4c(C)cc(C)cc4O)nn3)[C@@H]2C1 (racemic) [Example 213, 1-[rac-(4aR,8aS)-4-[6-(2-hydroxy-4,6-dimethyl-phenyl)pyridazin-3-yl]-3,4a,5,7,8,8a-hexahydro-2H-pyrido[4,3-b][1,4]oxazin-6-yl]ethanone]
> 10000 nM | 99 nM | Cc1cc(Cl)cc(O)c1-c1ccc(N2C[C@@H](O)CC2=O)nn1 [Example 130, (4S)-1-[6-(4-chloro-2-hydroxy-6-methyl-phenyl)pyridazin-3-yl]-4-hydroxy-pyrrolidin-2-one]
> 10000 nM | 28 nM | Oc1cc(Cl)cc(Cl)c1-c1ccc(N2CCOC(CF)C2)nn1 (stereo not shown) [Example 161, 3,5-dichloro-2-[6-[2-(fluoromethyl)morpholin-4-yl]pyridazin-3-yl]phenol]
> 10000 nM | 31 nM | Cc1cc(C(F)(F)F)cc(O)c1-c1ccc(N2CC[C@H]3CCN(C)C[C@H]32)nn1 [Example 391, 2-[6-[(3aR,7aS)-6-methyl-3,3a,4,5,7,7a-hexahydro-2H-pyrrolo[2,3-c]pyridin-1-yl]pyridazin-3-yl]-3-methyl-5-(trifluoromethyl)phenol]
> 10000 nM | 411 nM | Cc1ccc(-c2nnc(N3CCO[C@H](CO)C3)cc2C(C)C)c(O)c1 [Example 74, 2-[6-[(2S)-2-(hydroxymethyl)morpholin-4-yl]-4-isopropyl-pyridazin-3-yl]-5-methyl-phenol]
> 10000 nM | 239 nM | COC[C@H]1CN(c2ccc(-c3c(O)cc(Cl)cc3Cl)nn2)CCO1 [Example 33, 3,5-dichloro-2-[6-[(2R)-2-(methoxymethyl)morpholin-4-yl]pyridazin-3-yl]phenol]
> 10000 nM | 47 nM | Cc1cc(O)c(-c2ccc(N3CCO[C@H](CO)C3)nn2)c(C(F)F)c1 [Example 153, 3-(difluoromethyl)-2-[6-[(2S)-2-(hydroxymethyl)morpholin-4-yl]pyridazin-3-yl]-5-methyl-phenol]
> 10000 nM | 0.4 nM | Cc1ccc(-c2nnc(N3CC[C@H]4CCN(C)C[C@H]43)cc2C)c(O)c1 (single isomer, unassigned) [Example 375]
8600 nM | 66 nM | Cc1ccc(-c2nnc(N3CCO[C@H](CO)C3)cc2C)c(O)c1 [Example 76, 2-[6-[(2S)-2-(hydroxymethyl)morpholin-4-yl]-4-methyl-pyridazin-3-yl]-5-methyl-phenol]
9990 nM | 332 nM | Oc1cc(Cl)cc(Cl)c1-c1ccc(N2CCSCC2)nn1 [Example 203, 3,5-dichloro-2-(6-thiomorpholinopyridazin-3-yl)phenol]

From US20240360151A1 (SANOFI, priority 2023, published 2024)
